Experimental data from paper PMC6003898 (EJNMMI Research, 2018).

Tests used:
[1] = test system: human U87-MG glioblastoma tumor xenografts in the brain; experiment: in vivo; details: rat
Description: (§1) Briefly, 8-week-old athymic male nude rats (180–220 g), (Hsd: RH-Foxn1rnu; Envigo, Gannat, France), were anesthetized with a mixture of air and 1.5–2% isoflurane and were placed in a Kopf stereotactic frame (900 M Kopf Instruments, Tujunga, CA). After a scalp incision, a burr hole was drilled 0.5 mm anterior and 2.7 mm lateral to bregma and a skull anchor (Patent N° 11 55596) was affixed.

[2] = test system: human U87-MG glioblastoma tumor xenografts in the flank; details: mouse, iv
Experimental: Animals were sacrificed by cervical dislocation 60 min after injection. Various tissues (tumor, liver, heart, brain, and kidney) were dissected, weighed, and counted in a calibrated gamma counter (Wizard, PerkinElmer, France). The results were expressed as percentages of injected dose and per gram of tissue (% ID/g).

[3] = test system: human U87-MG glioblastoma tumor xenografts in the flank; experiment: in vivo; details: mouse
Experimental: (§2) Tumor xenografts were obtained in mice flanks as described previously. Six-week-old female immunodeficient (nu/nu) NMRI mice, weighing 20–25 g, were obtained from Janvier Laboratories (Le Genest Saint Isle, France) and housed in ventilated cages including filter tops with an ad libitum access to food and water. Two xenograft tumors were induced in all mice through subcutaneous flank injections of 2.10^6 of human U87-MG cells. Tumor growth was assessed twice weekly, according to tumor volume (in mm^3) calculated with the formula d2 × D/2, where d and D represent the shortest and longest diameters, respectively, calculated in millimeter with a caliper (decrescent PRC, EDVC, France).
(§3) At the end of the 2nd PET recording, the animals were sacrificed by inhalation of 5% of isoflurane followed by cervical dislocation. Tumors were subsequently surgically removed for further histopathological analysis.
(§4) List-mode acquisitions of 120 min durations were initiated a few seconds prior to tracer injection, and the acquired PET data were subsequently reconstructed in 27 consecutive frames (i.e., 5 frames of 120-s duration followed by 22 frames of 5-min duration) using the ordered-subsets expectation maximization 3D algorithm (OSEM3D, 4 iterations, 16 subsets, zoom 1) together with scatter and attenuation corrections based on transmission source measurement. The final voxel size was 0.8 × 0.8 × 0.9 mm^3.
(§5) Tumor and of various organ activities were determined through SUV mean values within 3D regions of interests (ROI), which were drawn with a dedicated software (Inveon Research Workplace 4.1, Siemens®, Knoxville, USA) on the fusion images encompassing the entire 120-min recording period. Spheroid ROIs were placed inside the liver, brain, and kidney regions with the ROI limits approximating the organ limits as close as possible. Tumor and heart ROIs were obtained with isocontour ROIs and threshold limits of 50 and 80%, respectively, of the maximal voxel value.

in vivo [4] = details: male, athymic nude (Hsd: RH-Foxn1rnu), rat, total radioactivity
Description: as §1

in vivo [5] = details: female, NMRI nu/nu, mouse, iv, 6 MBq, total radioactivity
Experimental: as §2, §3, §4, §5

Structure (SMILES)	tumor activity relative to contralateral normal brain [1]	tumor-to-normal brain ratio (ex vivo biodistribution data, gamma counter) [2] [%ID/g]	course of tumor uptake with time [3]	route of tracer clearance [3]	tumor-to-normal brain ratio (PET imaging) [3]	mean tumor activity (SUVmean) ([3]; iv)	SUV (in vivo [4]; SUVmean_ contralateral normal brain) [SUV]	SUV (in vivo [4]; SUVmean_Tumor) [SUV]	SUV at 1 h (in vivo [5]) [SUV]
OC[C@H]1OC(O)[C@H](F)[C@@H](O)[C@@H]1O (stereo partly shown) [^18F-FDG, ^18F-fluorodeoxyglucose]	1.62 ± 0.15	0.61 ± 0.2	progressive enhancement	primary renal route of tracer clearance	1.5 ± 0.37	1.19 ± 0.33			
N=C(N)NCCC[C@@H]1NC(=O)[C@H](CCCCNC(=O)CCC(C(=O)O)N2CCN(CC(=O)O)CCN(CC(=O)O)CC2)NC(=O)[C@@H](Cc2ccc(O)cc2)NC(=O)[C@H](CC(=O)O)NC(=O)CNC1=O (stereo partly shown) [^68Ga-NODAGA-RGD, metal not drawn]				primary renal route of tracer clearance			0.1	0.5	0.23 ± 0.04
